In patent US11505536B2, “Dihydroorotate dehydrogenase inhibitors” (Janssen Biotech, Inc., priority 2019, dated 2022) one finds IC50 data, which are given here for six molecules.

For orientation: IC50 means the concentration at which inhibition is half-maximal.

In experiment [1] the test system is MOLM-13 cells (human acute myeloid leukemia cells). Briefly: MOLM-13 Cellular Assay. The class given is cell-based. The settings on record: Homo sapiens, MOLM-13, 72 h, 72 hours exposure, cell viability by CellTiter-Glo. The gist of the method:
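MOLM-13 AML cells, seeded at 5,000/well in RPMI 1640 with 10% FBS, were treated with compounds right after seeding for 72 h at 37 °C, 5% CO2. Viability read by CellTiter-Glo luminescence.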

A further experiment addresses human DHODH (Homo sapiens (Human), UniProt Q02127). Briefly: DHODH Enzymatic Assay. The class given is biochemical. The note with it: purified human DHODH, DCIP absorbance, end-point mode; read-out: hDHODH IC50. The gist of the method: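 Purified human DHODH in […] HEPES pH 7.5, 150 mM NaCl, 0.5 mM EDTA, 0.1% Triton X-100; reaction started with substrate mix of 20 mM DHO, 5 mM CoQ6, 1 mM DCIP. End-point read as DCIP reduction (absorbance ~600 nm) after brequinar quench.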

human DHODH, sequence (Q02127 whole entry): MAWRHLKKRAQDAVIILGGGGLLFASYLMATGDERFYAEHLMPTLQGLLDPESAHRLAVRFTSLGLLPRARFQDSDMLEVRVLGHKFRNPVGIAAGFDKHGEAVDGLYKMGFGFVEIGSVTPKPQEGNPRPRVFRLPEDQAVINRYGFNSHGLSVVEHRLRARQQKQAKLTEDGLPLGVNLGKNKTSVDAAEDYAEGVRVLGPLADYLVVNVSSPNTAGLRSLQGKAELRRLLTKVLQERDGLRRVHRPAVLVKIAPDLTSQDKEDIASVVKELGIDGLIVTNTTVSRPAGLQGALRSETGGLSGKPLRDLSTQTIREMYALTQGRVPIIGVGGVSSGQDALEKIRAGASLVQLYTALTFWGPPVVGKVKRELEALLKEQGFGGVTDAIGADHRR

Regarding `C=C(C)c1cn(-c2cc(C)ccc2Cl)c(=O)c2cc(F)c(-n3nc(CO)n(CC)c3=O)cc12` [Example 43, 2-(2-Chloro-5-methylphenyl)-6-(4-ethyl-3-(hydroxymethyl)-5-oxo-4,5-dihydro-1H-1,2,4-triazol-1-yl)-7-fluoro-4-(prop-1-en-2-yl)isoquinolin-1(2H)-one], the IC50 came to 0.4 nM in experiment [1] and 0.917 nM at human DHODH.

In the case of `C=C(C)c1cn(-c2cc(C)ccc2C)c(=O)c2cc(F)c(-n3nc(CO)n(CC)c3=O)cc12` [Example 87, 2-(2,5-Dimethylphenyl)-6-(4-ethyl-3-(hydroxymethyl)-5-oxo-4,5-dihydro-1H-1,2,4-triazol-1-yl)-7-fluoro-4-(prop-1-en-2-yl)isoquinolin-1(2H)-one], the IC50 in experiment [1] was 0.9 nM; at human DHODH it was 0.292 nM.

Consider `CCn1c(CO)nn(-c2cc3c(C(C)C)cn(-c4cc(F)ccc4F)c(=O)c3cc2F)c1=O` [Example 68, 2-(2,5-Difluorophenyl)-6-(4-ethyl-3-(hydroxymethyl)-5-oxo-4,5-dihydro-1H-1,2,4-triazol-1-yl)-7-fluoro-4-isopropylisoquinolin-1(2H)-one], for which the IC50 amounted to 3 nM in experiment [1] and 2.2 nM at human DHODH.

With `CCn1c(CO)nn(-c2cc3c(C(C)C)cn(-c4nc(C)ccc4Cl)c(=O)c3cc2F)c1=O` [Example 108, 2-(3-Chloro-6-methylpyridin-2-yl)-6-(4-ethyl-3-(hydroxymethyl)-5-oxo-4,5-dihydro-1H-1,2,4-triazol-1-yl)-7-fluoro-4-isopropylisoquinolin-1(2H)-one], the IC50 in experiment [1] was 6 nM; at human DHODH, 3.07 nM.

As to `CCC(COC)n1cc(C(C)C)c2cc(-n3nc(CO)n(CC)c3=O)c(F)cc2c1=O` (stereo not drawn) [Example 116, 6-(4-Ethyl-3-(hydroxymethyl)-5-oxo-4,5-dihydro-1H-1,2,4-triazol-1-yl)-7-fluoro-4-isopropyl-2-(1-methoxybutan-2-yl)isoquinolin-1(2H)-one], the IC50 in experiment [1] is 20 nM; at human DHODH, 30.7 nM.

Turning to `CCn1c(CO)nn(-c2cc3c(C(C)C)cn(C45CCC(CC4)C5)c(=O)c3cc2F)c1=O` [Example 128, 2-(Bicyclo[2.2.1]heptan-1-yl)-6-(4-ethyl-3-(hydroxymethyl)-5-oxo-4,5-dihydro-1H-1,2,4-triazol-1-yl)-7-fluoro-4-isopropylisoquinolin-1(2H)-one], the half-maximal inhibitory concentration (IC50) came out at 7 nM in experiment [1] and 19 nM at human DHODH.
